Test results from patent publication US20040101840A1, “Identification, cloning and characterization of a novel pc-1 gene differentially expressed in prostate cells and tissues” (priority 2003, published 2004).

Assays:
Format in all cases: cell-based, human
[1] = system: PC-1 gene expression in LNCaP and C4-2 cells; test: Antiandrogen blockade of androgen-induced PC-1 gene expression in prostate cancer cell lines
Procedure: Parental LNCaP and its derivative cell lines, C4, C4-2, and C4-2B, were described previously. ARCaP cells, a highly invasive prostate cancer cell line, were generated by our lab from the ascites fluid of a person with Al and aggressive human prostate cancer. […]. To test the effect of androgen in affecting PC-1 gene expression in prostate cancer cell lines, cells were exposed to a synthetic androgen methyltrioenolone (R1881) at a concentration of 0.1, 1, and 10 nM. […] The culture was allowed to continue for two days and total cellular RNA was isolated and subjected to RT-PCR and Northern blot analysis for the expression of PC-1 gene. […]
(§1) First strain cDNA was synthesized from 1 μg of total RNA with a hexamer random primer obtained from Perkin-Elmer using a MMLV reverse transcriptase obtained from Life Technologies, Inc. (Grand Island, N.Y.) according to the manufacturer's instructions. cDNAs obtained were subjected to Taq DNA polymerase PCR reaction under the condition of 94° for 1 minute, 60° for 1 minute, 72° for 45 seconds, or 94° for 1 minute, 53° for 1 minute, and 72° for 1 minute for 30 cycles, and an extension of 72° for 10 minutes. […] The PCR. products were evaluated on a 1% agarose gel and confirmed by Southern blot analysis. […]

[2] = system: D52/N8 gene expression in LNCaP and C4-2 cells; test: Androgen regulation of D52/N8 gene expression in prostate cancer cell lines
Procedure: Parental LNCaP and its derivative cell lines, C4, C4-2, and C4-2B, were described previously. ARCaP cells, a highly invasive prostate cancer cell line, were generated by our lab from the ascites fluid of a person with Al and aggressive human prostate cancer. […]. To test the effect of androgen in affecting PC-1 gene expression in prostate cancer cell lines, cells were exposed to a synthetic androgen methyltrioenolone (R1881) at a concentration of 0.1, 1, and 10 nM. To assess the specificity of androgen induction of PC-1 gene expression, some of the cells exposed to 10 nM of R1881 were also treated with an antiandrogen Casodex, 10 μM. […]
as §1

[3] = system: PC-1 gene expression in C4-2 cells; test: Androgen regulation of PC-1 gene expression in C4-2 cells (RT-PCR and Northern blot); settings: two days exposure
Procedure: (§2) Parental LNCaP and its derivative cell lines, C4, C4-2, and C4-2B, were described previously. ARCaP cells, a highly invasive prostate cancer cell line, were generated by our lab from the ascites fluid of a person with Al and aggressive human prostate cancer. All other cell lines were obtained from ATCC and were cultured in TB containing 5% FBS, as described previously. To test the effect of androgen in affecting PC-1 gene expression in prostate cancer cell lines, cells were exposed to a synthetic androgen methyltrioenolone (R1881) at a concentration of 0.1, 1, and 10 nM. To assess the specificity of androgen induction of PC-1 gene expression, some of the cells exposed to 10 nM of R1881 were also treated with an antiandrogen Casodex, 10 μM. […]
as §1

[4] = system: PC-1 gene expression in LNCaP cells; test: Androgen regulation of PC-1 gene expression in LNCaP cells (RT-PCR and Northern blot); settings: two days exposure
Procedure: as §2, §1

Structure (SMILES) | effect on R1881-increased expression of the PC-1 gene ([1]; coadministration with R1881, Casodex (10 nM) as printed in FIG. 5 legend) | effect on androgen-induced PC-1 gene expression ([1]; coadministration with androgen, LNCaP and C4-2) | inhibition of D52/N8 expression ([2]; coadministration of R1881 and Casodex) | concentration at which steady-state levels of PC-1 gene expression are increased [3] [nM] | concentration required to increase PC-1 gene expression [4] [nM] | regulation of D52/N8 expression by androgen ([2]; R1881 alone)
CC(O)(CS(=O)(=O)c1ccc(F)cc1)C(=O)Nc1ccc(C#N)c(C(F)(F)F)c1 (stereo not drawn) [Casodex] | blocked | effectively terminated | nor was its expression inhibited | – | – | –
C[C@]1(O)CC[C@H]2[C@@H]3CCC4=CC(=O)CCC4=C3C=C[C@@]21C [R1881, methyltrioenolone] | – | – | – | 0.1 | 1 | not regulated
